PubChem BioAssay (NCI)
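Following 48 hours of exposure in 96-well plates, responses at five concentrations were used to interpolate endpoints linearly. GI50 marks 50% less growth. TGI denotes the concentration required for complete inhibition of growth.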

Experiments:
Assay in all cases: NCI-60 cell line screen, 48 h
[1] = test system: OVCAR-5 ovarian
[2] = test system: A498 renal
[3] = test system: CCRF-CEM leukemia
[4] = test system: BT-549 breast
[5] = test system: SW-620 colon
[6] = test system: HCT-15 colon
[7] = test system: A549 NSCLC
[8] = test system: SF-295 CNS
[9] = test system: HOP-62 NSCLC
[10] = test system: SNB-75 CNS
[11] = test system: T-47D breast
[12] = test system: COLO 205 colon
[13] = test system: U251 CNS
[14] = test system: EKVX NSCLC
[15] = test system: OVCAR-8 ovarian
[16] = test system: MCF7 breast
[17] = test system: DU-145 prostate
[18] = test system: LOX IMVI melanoma
[19] = test system: OVCAR-3 ovarian
[20] = test system: NCI-H23 lung
[21] = test system: OVCAR-4 ovarian
[22] = test system: CAKI-1 renal
[23] = test system: MDA-MB-435
[24] = test system: HT29 colon
[25] = test system: RXF 393 renal
[26] = test system: MALME-3M melanoma
[27] = test system: SK-MEL-5 melanoma
[28] = test system: TK-10 renal
[29] = test system: HOP-92 NSCLC
[30] = test system: UACC-257 melanoma
[31] = test system: KM12 colon
[32] = test system: SNB-19 CNS
[33] = test system: IGROV1 ovarian
[34] = test system: HS 578T breast
[35] = test system: ACHN renal
[36] = test system: PC-3 prostate
[37] = test system: NCI-H460 lung
[38] = test system: SF-268 CNS
[39] = test system: NCI/ADR-RES ovarian
[40] = test system: SF-539 CNS
[41] = test system: NCI-H226 lung
[42] = test system: HCT-116 colon
[43] = test system: SK-MEL-28 melanoma
[44] = test system: RPMI-8226 leukemia
[45] = test system: 786-0 renal
[46] = test system: M14 melanoma
[47] = test system: SK-OV-3 ovarian
[48] = test system: HL-60(TB) leukemia
[49] = test system: UO-31 renal
[50] = test system: SK-MEL-2 melanoma
[51] = test system: MOLT-4 leukemia
[52] = test system: K-562 leukemia
[53] = test system: UACC-62 melanoma
[54] = test system: SN12C renal
[55] = test system: MDA-MB-231 breast
[56] = test system: SR leukemia

## CCCCCC(=C/c1ccccc1)/C=N/N=C(N)N
[1]
  GI50: 1.74 µM
  TGI: 3.69 µM
[2]
  GI50: 0.621 µM
  TGI: 1.99 µM
[3]
  GI50: 2 µM
  TGI: 5.04 µM
[4]
  GI50: 1.65 µM
  TGI: 3.02 µM
[5]
  GI50: 1.52 µM
  TGI: 3.16 µM
[6]
  GI50: 1.99 µM
  TGI: 5 µM
[7]
  GI50: 1.73 µM
  TGI: 3.23 µM
[8]
  GI50: 1.67 µM
  TGI: 3.49 µM
[9]
  GI50: 1.63 µM
  TGI: 3.31 µM
[10]
  GI50: 1.35 µM
  TGI: 2.7 µM
[11]
  GI50: 1.65 µM
  TGI: 3.62 µM
[12]
  GI50: 1.65 µM
  TGI: 3.17 µM
[13]
  GI50: 1.7 µM
  TGI: 3.18 µM
[14]
  GI50: 4.03 µM
  TGI: 19.1 µM
[15]
  GI50: 1.74 µM
  TGI: 3.54 µM
[16]
  GI50: 1.34 µM
  TGI: 2.74 µM
[17]
  GI50: 1.57 µM
  TGI: 2.94 µM
[18]
  GI50: 1.44 µM
  TGI: 3.02 µM
[19]
  GI50: 1.27 µM
  TGI: 2.56 µM
[20]
  GI50: 1.47 µM
  TGI: 3.12 µM
[21]
  GI50: 1.46 µM
  TGI: 2.84 µM
[22]
  GI50: 5.16 µM
  TGI: 21.2 µM
[23]
  GI50: 1.7 µM
  TGI: 3.28 µM
[24]
  GI50: 1.58 µM
  TGI: 3.27 µM
[25]
  GI50: 1.72 µM
  TGI: 3.15 µM
[26]
  GI50: 1.51 µM
  TGI: 3.12 µM
[27]
  GI50: 1.66 µM
  TGI: 3.04 µM
[28]
  GI50: 1.75 µM
  TGI: 3.32 µM
[29]
  GI50: 1.45 µM
  TGI: 3.19 µM
[30]
  GI50: 1.45 µM
  TGI: 2.83 µM
[31]
  GI50: 1.43 µM
  TGI: 2.82 µM
[32]
  GI50: 1.85 µM
  TGI: 4.15 µM
[33]
  GI50: 1.32 µM
  TGI: 2.72 µM
[34]
  GI50: 1.8 µM
  TGI: 4.18 µM
[35]
  GI50: 1.69 µM
  TGI: 3.28 µM
[36]
  GI50: 1.4 µM
  TGI: 2.92 µM
[37]
  GI50: 1.57 µM
  TGI: 3.13 µM
[38]
  GI50: 1.45 µM
  TGI: 2.99 µM
[39]
  GI50: 1.53 µM
  TGI: 3.3 µM
[40]
  GI50: 1.95 µM
  TGI: 3.71 µM
[41]
  GI50: 2.2 µM
  TGI: 5.51 µM
[42]
  GI50: 1.32 µM
  TGI: 2.72 µM
[43]
  GI50: 1.65 µM
  TGI: 3.06 µM
[44]
  GI50: 1.42 µM
  TGI: 3.55 µM
[45]
  GI50: 1.6 µM
  TGI: 3 µM
[46]
  GI50: 1.56 µM
  TGI: 3.09 µM
[47]
  GI50: 2.95 µM
  TGI: 10.8 µM
[48]
  GI50: 0.451 µM
  TGI: 1.96 µM
[49]
  GI50: 1.19 µM
  TGI: 2.5 µM
[50]
  GI50: 1.7 µM
  TGI: 3.2 µM
[51]
  GI50: 1.53 µM
  TGI: 3.51 µM

## O=[N+]([O-])c1ccc(C2CC3(c4ccccc4)ON=C(c4ccccc4)N3c3ccccc3S2)cc1 (stereo not given)
[8]
  GI50: 80.8 µM
[9]
  GI50: 58.9 µM
[10]
  GI50: 37.4 µM
[21]
  GI50: 76.1 µM
[28]
  GI50: 0.0149 µM
  TGI: 7.95 µM
[29]
  GI50: 78.2 µM
[40]
  GI50: 68.9 µM
[52]
  GI50: 83.6 µM
[42]
  GI50: 19.7 µM
[50]
  GI50: 40.3 µM

## C[C@]12CCc3sc(Nc4ccc(F)cc4F)nc3C1=CC[C@@H]1[C@@H]2CC[C@]2(C)C(=O)CC[C@@H]12
[15]
  GI50: 2.96 µM
  TGI: > 100 µM
[52]
  GI50: 2.43 µM
  TGI: > 100 µM
[51]
  GI50: 2.44 µM
  TGI: > 100 µM

## O=c1oc2ccccc2n1CCCn1c(=O)oc2ccccc21
[1]
  TGI: > 100 µM
[2]
  TGI: > 100 µM
[3]
  TGI: > 100 µM
[4]
  TGI: > 100 µM
[5]
  TGI: > 100 µM
[6]
  TGI: > 100 µM
[8]
  TGI: > 100 µM
[9]
  TGI: > 100 µM
[10]
  TGI: > 100 µM
[12]
  TGI: > 100 µM
[13]
  TGI: > 100 µM
[14]
  TGI: > 100 µM
[15]
  TGI: > 100 µM
[16]
  TGI: > 100 µM
[17]
  TGI: > 100 µM
[18]
  TGI: > 100 µM
[19]
  TGI: > 100 µM
[20]
  TGI: > 100 µM
[22]
  TGI: > 100 µM
[23]
  TGI: > 100 µM
[24]
  TGI: > 100 µM
[25]
  TGI: > 100 µM
[26]
  TGI: > 100 µM
[27]
  TGI: > 100 µM
[28]
  TGI: > 100 µM
[30]
  TGI: > 100 µM
[31]
  TGI: > 100 µM
[32]
  TGI: > 100 µM
[33]
  TGI: > 100 µM
[34]
  TGI: > 100 µM
[35]
  TGI: > 100 µM
[36]
  TGI: > 100 µM
[53]
  TGI: > 100 µM
[37]
  TGI: > 100 µM
[38]
  TGI: > 100 µM
[54]
  TGI: > 100 µM
[39]
  TGI: > 100 µM
[55]
  TGI: > 100 µM
[40]
  TGI: > 100 µM
[41]
  TGI: > 100 µM
[52]
  TGI: > 100 µM
[42]
  TGI: > 100 µM
[56]
  TGI: > 100 µM
[43]
  TGI: > 100 µM
[44]
  TGI: > 100 µM
[45]
  TGI: > 100 µM
[46]
  TGI: > 100 µM
[47]
  TGI: > 100 µM
[48]
  TGI: > 100 µM
[50]
  TGI: > 100 µM
[51]
  TGI: > 100 µM
